Assay results taken from article PMC5106290 (Bioorganic & medicinal chemistry, 2014).
Where two headings read alike, the source gives them in different places.

Key:
L. i. chagasi = format: in vivo, Leishmania infantum chagasi; conditions: infected BALB/c mice
RAW 264.7 cells = format: cell-based, murine; conditions: Table 1 and text, 48 h, MTT
[1] = test system: promastigote of Leishmania amazonensis; conditions: ref Medeiros et al. 21; cited from earlier work
[2] = Glucantime 80 mg/Kg intra muscular once a day for 30 days
[3] = 100 mg/kg IP once a day for 30 days

Molecule: antimoniate N-methyl glucamine [Glucantime, reference compound]
- Amount of amastigotes seen in spleen stain (L. i. chagasi; [2]): only a few amastigotes
- Presence of amastigotes in spleen (immunohistochemistry, qualitative) (L. i. chagasi; [2]): visible

Molecule: C=CCc1ccc(OC(=O)c2ccccc2)c(OC)c1 [Benzoyl-Eugenol, O-benzoyl-eugenol]
- Presence of amastigotes in spleen (immunohistochemistry, qualitative) (L. i. chagasi; [3]): could not be visualized

Molecule: C=CCc1ccc(OC(C)=O)c(OC)c1 [Acetyl-Eugenol, O-acetyl-eugenol]
- Presence of amastigotes in spleen (immunohistochemistry, qualitative) (L. i. chagasi; [3]): could not be visualized

Molecule: CC(=O)Oc1cc(C)ccc1C(C)C [Acetyl-Thymol, O-acetyl-thymol]
- Toxicity % RAW 264.7 cells survival at 100 μg/mL (±SD) (RAW 264.7 cells): not toxic
- Amount of amastigotes seen in spleen stain (L. i. chagasi; [3]): regular amount of parasites

Molecule: Cc1ccc(C(C)C)c(O)c1 [Thymol]
- EC50 against promastigote of Leishmania amazonensis [1]: 19.4 mg/L

Molecule: Cc1ccc(C(C)C)c(OC(=O)c2ccccc2)c1 [Benzoyl-Thymol, O-benzoyl-thymol]
- Presence of amastigotes in spleen (immunohistochemistry, qualitative) (L. i. chagasi; [3]): could not be visualized
